Structures can show the parent of a compound that is named as a salt. Where two headings read alike, the source gives them in different places.
Assays:
[1] = assay type: physicochemical
Excerpt: Dynamic vapor sorption (DVS) analysis was completed on flunarizine benzoate from about 0 to about 95 percent relative humidity at about 25 degrees C. (See FIG. 5). […] This is characteristic of a nonhygroscopic material.
Dynamic vapor sorption (DVS) analysis was completed on flunarizine fumarate from about 0 to about 95 percent relative humidity at about 25 degrees C. (See FIG. 9). […] This is characteristic of a nonhygroscopic material.
Flunarizine dihydrochloride is hygroscopic. The dihydrochloride salt rapidly adsorbs water (greater than 7 percent change in mass) at relative humidity levels above about 60 percent. The release of the adsorbed water is difficult upon desorption. In comparison, the flunarizine benzoate salt of the present invention adsorbs relatively little water (less than 1 percent change in mass) at relative humidity levels up to about 95 percent.

[2] = Excipient compatibility, solid mixes sucrose:crospovidone:flunarizine salt 94:5:1 stored at 60 degrees C.; assay type: physicochemical; details: sucrose:crospovidone:salt 94:5:1 (weight %), wetted and dried, seal crimped, stored at 60 degrees C. for 2 weeks
Experimental: Two solid mixes, one containing sucrose:crospovidone:flunarizine dihydrochloride 94:5:1 (weight %), and the other containing sucrose:crospovidone:flunarizine benzoate 94:5:1 (weight %), were prepared in mortars, transferred to separate vials and a small amount of water was added until a very viscous syrup was formed. The samples were left to air dry at room temperature for two days followed by one day under vacuum at 40 degrees C. After the processing was finished, pictures of the samples were taken. Vials with identical content to the ones pictured were seal crimped and stored at 60 degrees C. for 2 weeks. After this period, their pictures were taken.

| hygroscopicity (DVS) ([1]; about 25 degrees C.) | water adsorption, change in mass ([1]; relative humidity levels up to about 95 percent) | release of the adsorbed water upon desorption ([1]; DVS desorption, about 25 degrees C.) | water adsorption, change in mass ([1]; relative humidity levels above about 60 percent, about 25 degrees C.) | Compound | stability over relative humidity (DVS) [1] | degradation in excipient mix (comparison of images) [2] |
| --- | --- | --- | --- | --- | --- | --- |
| nonhygroscopic |  |  |  | 1-cinnamyl-4-(di-p-fluorobenzhydryl)piperazine fumarate [flunarizine fumarate] | stable from about 0% to about 95% relative humidity |  |
| nonhygroscopic | less than 1% |  |  | Fc1ccc(C(c2ccc(F)cc2)N2CCN(CC=Cc3ccccc3)CC2)cc1.O=C(O)c1ccccc1 [flunarizine benzoate, 1-cinnamyl-4-(di-p-fluorobenzhydryl)piperazine benzoate] | stable from about 0% to about 95% relative humidity | substantially more degradation had occurred in the mixes containing flunarizine dihydrochloride than those containing flunarizine benzoate |
| hygroscopic |  | difficult | greater than 7% | Fc1ccc(C(c2ccc(F)cc2)N2CCN(C/C=C/c3ccccc3)CC2)cc1 [flunarizine dihydrochloride, reference compound] |  | substantially more degradation |

Reference: US20080200474A1, “NOVEL FLUNARIZINE SALT FORMS AND METHODS OF MAKING AND USING THE SAME” (TRANSFORM PHARMACEUTICALS, INC., priority 2007, published 2008)
